Assay results taken from patent US11384062B2 (CombiPhos Catalysts, Inc., priority 2017, dated 2022).

Tests used:
HL-60(TB) = details: 10 μM single dose; Leukemia HL-60(TB)
HS 578T = details: 10 μM single dose; Breast Cancer HS 578T
Source text: (§1) The test compounds were screened for anticancer activity at the Development Therapeutic Program (DTP), National Cancer Institute (NCI), USA, against a full NCI 59 cell line panel (six cell lines of leukemia, nine cell lines of lung cancer, seven cell lines of colon cancer, six cell lines of CNS cancer, nine cell lines of melanoma, seven cell lines of ovarian cancer, seven cell lines of renal cancer, two cell lines of prostate cancer, and six cell lines of breast cancer) representing nine human systems in total as leukemia, melanoma, and cancers of the lungs, colon, brain, breast, ovary, kidney, and prostate, according to the applied protocol. A primary in vitro one dose anticancer assay was performed at a single dose (10 μM) against the full NCI 59 cell line panel. The one dose data was reported as a mean graph of the percent growth of treated cells. The number reported for the single dose assay was growth relative to the no drug control and relative to the initial number of cells at time 0. […] A value of −40 means 40% lethality. A value of −100 means all cells are dead.

OVCAR-4 = details: 10 μM single dose; Ovarian Cancer OVCAR-4
Source text: as §1

MCF7 = details: 10 μM single dose; Breast Cancer MCF7
Source text: as §1

SK-MEL-2 = details: 10 μM single dose; Melanoma SK-MEL-2
Source text: as §1

CCRF-CEM = details: 10 μM single dose; Leukemia CCRF-CEM
Source text: as §1

SF-268 = details: 10 μM single dose; CNS Cancer SF-268
Source text: as §1

NCI-H460 = details: 10 μM single dose; Non-Small Cell Lung Cancer NCI-H460
Source text: as §1

COLO 205 = details: 10 μM single dose; Colon Cancer COLO 205
Source text: as §1

EKVX = details: 10 μM single dose; Non-Small Cell Lung Cancer EKVX
Source text: as §1

NCI-H23 = details: 10 μM single dose; Non-Small Cell Lung Cancer NCI-H23
Source text: as §1

OVCAR-3 = details: 10 μM single dose; Ovarian Cancer OVCAR-3
Source text: as §1

K-562 = details: 10 μM single dose; Leukemia K-562
Source text: as §1

SNB-19 = details: 10 μM single dose; CNS Cancer SNB-19
Source text: as §1

U251 = details: 10 μM single dose; CNS Cancer U251
Source text: as §1

UO-31 = details: 10 μM single dose; Renal Cancer UO-31
Source text: as §1

MDA-MB-231/ATCC = details: 10 μM single dose; Breast Cancer MDA-MB-231/ATCC
Source text: as §1

LOX IMVI = details: 10 μM single dose; Melanoma LOX IMVI
Source text: as §1

SF-295 = details: 10 μM single dose; CNS Cancer SF-295
Source text: as §1

KM12 = details: 10 μM single dose; Colon Cancer KM12
Source text: as §1

T-47D = details: 10 μM single dose; Breast Cancer T-47D
Source text: as §1

SK-OV-3 = details: 10 μM single dose; Ovarian Cancer SK-OV-3
Source text: as §1

M14 = details: 10 μM single dose; Melanoma M14
Source text: as §1

HCT-116 = details: 10 μM single dose; Colon Cancer HCT-116
Source text: as §1

MDA-MB-435 = details: 10 μM single dose; Melanoma MDA-MB-435
Source text: as §1

HOP-92 = details: 10 μM single dose; Non-Small Cell Lung Cancer HOP-92
Source text: as §1

PC-3 = details: 10 μM single dose; Prostate Cancer PC-3
Source text: as §1

DU-145 = details: 10 μM single dose; Prostate Cancer DU-145
Source text: as §1

UACC-257 = details: 10 μM single dose; Melanoma UACC-257
Source text: as §1

SN12C = details: 10 μM single dose; Renal Cancer SN12C
Source text: as §1

UACC-62 = details: 10 μM single dose; Melanoma UACC-62
Source text: as §1

SK-MEL-5 = details: 10 μM single dose; Melanoma SK-MEL-5
Source text: as §1

ACHN = details: 10 μM single dose; Renal Cancer ACHN
Source text: as §1

SF-539 = details: 10 μM single dose; CNS Cancer SF-539
Source text: as §1

NCI-H226 = details: 10 μM single dose; Non-Small Cell Lung Cancer NCI-H226
Source text: as §1

NCI-H322M = details: 10 μM single dose; Non-Small Cell Lung Cancer NCI-H322M
Source text: as §1

OVCAR-8 = details: 10 μM single dose; Ovarian Cancer OVCAR-8
Source text: as §1

| SMILES | Growth Percentage (HL-60(TB)) [%] | Growth Percentage (HS 578T) [%] | Growth Percentage (OVCAR-4) [%] | Growth Percentage (MCF7) [%] | Growth Percentage (SK-MEL-2) [%] | Growth Percentage (CCRF-CEM) [%] | Growth Percentage (SF-268) [%] | Growth Percentage (NCI-H460) [%] | Growth Percentage (COLO 205) [%] | Growth Percentage (EKVX) [%] | Growth Percentage (NCI-H23) [%] | Growth Percentage (OVCAR-3) [%] | Growth Percentage (K-562) [%] | Growth Percentage (SNB-19) [%] | Growth Percentage (U251) [%] | Growth Percentage (UO-31) [%] | Growth Percentage (MDA-MB-231/ATCC) [%] | Growth Percentage (LOX IMVI) [%] | Growth Percentage (SF-295) [%] | Growth Percentage (KM12) [%] | also measured |
| --- | --- | --- | --- | --- | --- | --- | --- | --- | --- | --- | --- | --- | --- | --- | --- | --- | --- | --- | --- | --- | --- |
| [2H]C1([2H])NC([2H])([2H])C([2H])(c2ccc(-n3cc4cccc(C(N)=O)c4n3)cc2)C([2H])([2H])C1([2H])[2H] (racemic) [Example 3, 2-(4-(piperidin-3-yl-2,2,3,4,4,5,5,6,6-d9)phenyl)-2H-indazole-7-carboxamide] | 89.31 | 86.68 | 106.31 | 75.22 | 117.90 | 87.92 | 88.94 | 86.91 | 94.82 | 100.49 | 91.99 | 103.07 | 89.73 | 91.61 | 85.78 | 80.19 | 83.62 | 76.95 | 96.74 | 99.34 | Growth Percentage (T-47D): 98.94%; Growth Percentage (SK-OV-3): 96.60%; Growth Percentage (M14): 98.03%; Growth Percentage (HCT-116): 83.66%; Growth Percentage (MDA-MB-435): 98.88%; Growth Percentage (HOP-92): 98.72%; Growth Percentage (PC-3): 80.86%; Growth Percentage (DU-145): 97.89%; Growth Percentage (UACC-257): 97.56%; Growth Percentage (SN12C): 93.25%; Growth Percentage (UACC-62): 84.84%; Growth Percentage (SK-MEL-5): 93.38%; Growth Percentage (ACHN): 77.21%; Growth Percentage (SF-539): 96.82%; Growth Percentage (NCI-H226): 93.61%; Growth Percentage (NCI-H322M): 98.96%; Growth Percentage (OVCAR-8): 81.93% |
| [2H]c1c([2H])c(C2([2H])C([2H])NC([2H])C([2H])C2[2H])c([2H])c([2H])c1-n1cc2cccc(C(N)=O)c2n1 (centres unmarked) [Example 4, 2-(4-(piperidin-3-yl-2,3,4,5,6-d5)phenyl-2,3,5,6-d4)-2H-indazole-7-carboxamide] | 77.68 | 86.01 | 98.64 | 64.30 | 101.94 | 89.50 | 89.52 | 76.94 | 82.07 | 88.21 | 84.26 | 107.53 | 77.76 | 88.53 | 83.63 | 75.43 | 80.47 | 70.64 | 85.63 | 87.65 | Growth Percentage (T-47D): 98.04%; Growth Percentage (SK-OV-3): 90.49%; Growth Percentage (M14): 84.68%; Growth Percentage (HCT-116): 77.22%; Growth Percentage (MDA-MB-435): 92.97%; Growth Percentage (HOP-92): 90.59%; Growth Percentage (PC-3): 85.40%; Growth Percentage (DU-145): 89.54%; Growth Percentage (UACC-257): 107.99%; Growth Percentage (SN12C): 89.59%; Growth Percentage (UACC-62): 85.29%; Growth Percentage (SK-MEL-5): 91.65%; Growth Percentage (ACHN): 72.83%; Growth Percentage (SF-539): 82.30%; Growth Percentage (NCI-H226): 91.01%; Growth Percentage (NCI-H322M): 84.01%; Growth Percentage (OVCAR-8): 82.86% |
